Series [1] relates to moderate to severe idiopathic RLS subjects. The series can be described thus: IRLS scale, placebo-controlled study in RLS subjects. The series is classed as in vivo, human. As to the method:
(§1) The study multi-centre, randomized, double-blind, parallel-groups, placebo-controlled study with 2 treatment arms, oral HPPD inhibitor (2-(2-nitro-4-trifluoromethylbenzoyl)-1,3-cyclohexanedione) and placebo. Subjects were randomized to either treatment with an HPPD inhibitor or placebo in a 2:1 ratio. The subjects were dosed with 4 mg on day 1, and 2 mg/day on days 2-14. The total duration of treatment with study drug for each subject was 14 consecutive days ending at the day of the final sleep lab assessment (Day 14), with a follow-up examination 29 days after Baseline.
(§2) The objective of this exploratory study was to show proof-of-concept of therapy with an exemplary HPPD inhibitor in moderate to severe idiopathic RLS subjects.
(§3) Efficacy parameters were changes between Baseline and end of treatment in objective measures of Periodic Limb Movements (PLM) and sleep efficiency and in investigator evaluations of severity of RLS symptoms as well as in subject's report on severity of RLS symptoms, sleep disturbances and depressive feelings. Parameters measured included: • Periodic Limb Movement (PLM) Index, defined as the number of PLM events occurring during time-in-bed (PLMI/h TIB) • Periodic Limb Movements during Sleep Index, defined as the number of PLMs per hour of total sleep time (PLMSI/h TST) • PLM arousal index, defined as the number of PLM with arousals per hour of total sleep time (PLMSAI/h TST) • Periodic Limb Movements during wakefulness index, defined as the number of PLMs per hour occurring during wakefulness within time-in-bed (PLMWI/h TIB) • Sleep Efficiency (SE) expressed as the percentage total sleep time (TST) of total time in bed (TIB) • Total Sleep Time (TST) • Total number of arousals per TST • Sleep latency • Restless Legs Scale—6 items (RLS-6) (Kohnen et al, 2004) • IRLS total score change from start of treatment to end • Time to requiring rescue medication (defined as time to dropout due to the need of rescue medication for intolerable RLS symptoms) • Physicians' Global Impression, rated by the Clinical Global Impressions Scale (CGI): severity, change and treatment effect • CGI responders defined as the proportion of subjects who improved “much” or “very much” on CGI item “change”. • Patients' Global Impression (PGI) scale Item 1 (efficacy) • Medical Outcomes Study (MOS) Sleep Scale • Beck Depression Inventory (BDI) • In addition, a patient diary was to be completed between days 8 and 15 • HPPD inhibitor plasma concentrations at Baseline, end of treatment and follow-up • Tyrosine plasma concentration at Baseline, end of treatment and follow-up.

The test system is the same in series [2]. The experiment in a line: Restless Legs Scale - 6 items (RLS-6). It counts as in vivo, human. The procedure: as §1, §2
(§4) Efficacy parameters were changes between Baseline and end of treatment in objective measures of Periodic Limb Movements (PLM) and sleep efficiency and in investigator evaluations of severity of RLS symptoms as well as in subject's report on severity of RLS symptoms, sleep disturbances and depressive feelings. […]

Series [3] shares this test system. The experiment in a line: Clinical Global Impressions Scale (CGI): severity, change and treatment effect. The series is classed as in vivo, human. As to the method: as §1, §2, §3
The test system is the same in series [4]. The experiment in a line: Patients' Global Impression (PGI) scale Item 1 (efficacy). It counts as in vivo, human. The procedure:
as §1, §2, §4

Series [5] has the same test system. The experiment in a line: PSG measurements, Periodic Limb Movement (PLM) index. It counts as in vivo, human. The following applies: log-transformed values on PSG measurements. The procedure: as §1, §2, §4
Series [6] in a line: Plasma level of HPPD inhibitor and plasma tyrosine at steady state, 2 mg QD vs. 2 mg Q2D (FIG. 3). The series is classed as in vivo. As to the method: FIG. 3 is a graphical comparison of the mean plasma level of an exemplary HPPD inhibitor with plasma tyrosine at steady state following 2 mg QD vs. 2 mg Q2D dosing.
FIG. 3 provides an example of plasma tyrosine levels which are essentially identical and independent of whether the HPPD inhibitor is administered once a day or once every two days.

The record followed here is patent US20100160295A1, “TREATMENT OF RESTLESS LEG SYNDROME AND SLEEP DISORDERS” (SYNOSIA THERAPEUTICS, priority 2008, published 2010).

With `O=C1CCCC(=O)C1C(=O)c1ccc(C(F)(F)F)cc1[N+](=O)[O-]` [HPPD Inhibitor, 2-(2-nitro-4-trifluoromethylbenzoyl)-1,3-cyclohexanedione], in series [1] (Baseline to EoT, M-ITT, 95%-CI: −9.75, 2.84, p=0.2636), the “IRLS severity score: difference drug-placebo, LS mean” value was −3.46. In addition, the “IRLS total score, difference vs placebo” value in series [1] (Baseline to EoT, not seen for IRLS impact score) was “numerical differences between Baseline and EoT favouring”. The “subjects reporting only mild or moderate RLS symptoms (IRLS scale), number” value in series [1] (EoT, M-ITT, placebo 2) was found to be 9 subjects. Also, the “subjects reporting only mild or moderate RLS symptoms (IRLS scale), percentage” value in series [1] (EoT, M-ITT, placebo 28.6%) was 64.3%. Also, the “RLS-6, all subscales: median (mean) differences between Baseline and EoT vs placebo” value in series [2] (Baseline to EoT) is “more benefit than those treated with placebo”. Also, in series [2] (M-ITT, 95%-CI: −4.52, 0.97, p=0.1910 two-sided from ANCOVA), the “RLS-6 RLS symptoms during the night: difference drug-placebo, LS mean” value is given as −1.77. The “RLS-6 RLS symptoms when falling asleep: difference drug-placebo, LS mean” value in series [2] (M-ITT, 95%-CI: −5.24, −0.01, p=0.0494 two-sided from ANCOVA) is given as −2.62. In series [3] (EoT), the “CGI severity item, improvement vs placebo” value is recorded as “larger improvement”. Besides, the “CGI severity: subjects not at all or only borderline ill, percentage” value in series [3] (EoT, M-ITT) was 21.4%. Moreover, the “CGI severity: subjects not at all or only borderline ill, number” value in series [3] (EoT, M-ITT, none on placebo) was 3 subjects. The “CGI severity: subjects with moderate to severe illness, number” value in series [3] (EoT, M-ITT, placebo 5) is 7 subjects. Further, the “CGI severity: subjects with moderate to severe illness, percentage” value in series [3] (EoT, M-ITT, placebo 71.4%) was 50.0%. Moreover, the “CGI change of condition: subjects very much or much improved (responder analysis), number” value in series [3] (M-ITT, placebo 2) is on record as 7 subjects. Moreover, in series [3] (M-ITT, placebo 28.6%), the “CGI change of condition: subjects very much or much improved (responder analysis), percentage” value was 50.0%. The “CGI treatment effect rated as very good or moderate, number of subjects” value in series [3] (placebo 3) was determined as 8 subjects. The “CGI treatment effect rated as very good or moderate, percentage of subjects” value in series [3] (placebo 42.9%) came to 57.1%. Also, in series [4] (placebo 2), the “PGI: subjects who assessed their therapy as efficacious, number” value is given as 7 subjects. Further, the “PGI: subjects who assessed their therapy as efficacious, percentage” value in series [4] (placebo 28.6%) is given as 50.0%. For the same compound, in series [5], the “PLM index values, improvement as compared to placebo” value is recorded as “slightly larger improvement”. Moreover, the “steady state plasma tyrosine levels, once a day vs once in two days” value in series [6] (2 mg once a day vs 2 mg once in 2 days) is recorded as “substantially similar”. Further, in series [6] (2 mg once in 2 days vs 2 mg once a day, steady state), the “plasma levels of the HPPD inhibitor, once in two day regimen vs once a day” value is given as “lower”.
